From patent US20190351012A1, “TARGETING OF INTERFERON-STIMULATED GENE EXPRESSION TO TREAT INTERFERONOPATHIES” (New York University, priority 2018, published 2019)

System: BRD4 recruitment sites
Test: Global ChIP-Seq for BRD4 recruitment
Type: cell-based, human
Conditions: combined IFN and TSA treatment
Experimental: To directly assess the effect of IFN and HDAC inhibition on BRD4 recruitment, we assayed the presence of BRD4 at ISG promoters by ChIP. BRD4 was recruited to three typical ISG promoters after 1 h of IFN stimulation. Importantly, this recruitment was abrogated by TSA, and, by JQ-1 (FIG. 5F). We also performed global ChIP-Seq for BRD4 recruitment.
ChIP-Seq libraries were made using the KAPA Hyper Prep kit (Roche, KK8504) using 25 ng of DNA per sample, according to the manufacturer's protocol for end repair and A-tailing. For adapter ligation, 8-nt multiplexing IDT (Integrated DNA Technologies) adapters (5 μM) were used. […] Libraries were sequenced on an Illumina HiSeq 4000 instrument, using a single read 50 protocol; 8 samples were pooled in one lane of a high output single read flow cell. […]
ChIP-Seq data analysis was carried out using the HiC-Bench pipeline (Lazaris et al., 2017, BMC Genomics 18:22). GenomicTools (Tsirigos et al., 2012, Bioinformatics 28:282-283), SAMtools (Li et al., 2009, Bioinformatics 25:2078-2079), DeepTools (Ramirez et al., 2016, Nucleic Acids Res. 44:W160-165), BEDTools (Quinlan and Hall, 2010, Bioinformatics 26:841-842), BigBed Tools (Kent et al., 2010, Bioinformatics 26:2204-2207), Picard Tools (https://broadinstitute.github.io/picard/), and R (https://www.R-project.org/) were used to analyze the sequenced reads and to check the quality of alignment. […]

CC(/C=C/C(=O)NO)=C\[C@@H](C)C(=O)c1ccc(N(C)C)cc1 [TSA, Trichostatin A]
sites of IFN-dependent BRD4 recruitment (366 detected) abrogated: all by 4 of which were abrogated
